According to paper PMC11871066, “Structure-based discovery of hydrocarbon-stapled paxillin peptides that block FAK scaffolding in cancer” (Nature Communications, 2025):

Legend:
Assay in all cases: Eurofins KINOMEscan profiling, 97 kinases
[1] = molecular target: 97 kinases (kinase named in endpoint) (Homo sapiens, UniProt O14920); settings: read-out: % Ctrl, IKK-beta
Experimental: (§1) This experiment was performed by Eurofins KINOMEscan™ Profiling Service. […] The lysates were centrifuged and filtered, the remaining kinases were produced in HEK-293 cells and subsequently tagged with DNA for qPCR detection. […] The liganded beads were blocked with excess biotin and washed with blocking buffer (SeaBlock (Pierce), 1% BSA, 0.05% Tween-20, 1 mM DTT). […] Test compounds were prepared as 100x stocks in 100% DMSO and directly diluted into the assay. All reactions were performed in polypropylene 384-well plates in a final volume of 0.02 ml. […] The kinase concentration in the eluates was measured by qPCR.
(§2) (negative control signal - positive control signal)] x 100. ( b) AccompanyingSelectivity Scores or S -scores
(§3) which are quantitative measures of compound selectivity. They are calculated by dividing the number of
(§4) kinases that compounds bind to by the total number of distinct kinases tested, excluding mutant variants.
(§5) S(35)= ( num ber of non -mutant kinases with %Ctrl <35)/(number of non- mutant kinases tested)], S(10)=
(§6) non- mutant kinases with %Ctrl <1)/(number of non- mutant kinases tested)].

[2] = molecular target: 97 kinases (kinase named in endpoint) (Homo sapiens, UniProt O15075); settings: read-out: % Ctrl, DCAMKL1
Experimental: as §1, §2, §3, §4, §5, §6

[3] = molecular target: 97 kinases (kinase named in endpoint) (Homo sapiens, UniProt O60674); settings: read-out: % Ctrl, JAK2(JH1domain-catalytic)
Experimental: as §1, §2, §3, §4, §5, §6

[4] = molecular target: 97 kinases (kinase named in endpoint) (Homo sapiens, UniProt O96013); settings: read-out: % Ctrl, PAK4
Experimental: as §1, §2, §3, §4, §5, §6

[5] = molecular target: 97 kinases (kinase named in endpoint) (Homo sapiens, UniProt P00519, E255K); settings: read-out: % Ctrl, ABL1(E255K)-phosphorylated
Experimental: as §1, §2, §3, §4, §5, §6

[6] = molecular target: 97 kinases (kinase named in endpoint) (Homo sapiens, UniProt P04049); settings: read-out: % Ctrl, RAF1
Chain of 97 kinases (kinase named in endpoint) (Homo sapiens, UniProt P04049) (P04049 whole entry): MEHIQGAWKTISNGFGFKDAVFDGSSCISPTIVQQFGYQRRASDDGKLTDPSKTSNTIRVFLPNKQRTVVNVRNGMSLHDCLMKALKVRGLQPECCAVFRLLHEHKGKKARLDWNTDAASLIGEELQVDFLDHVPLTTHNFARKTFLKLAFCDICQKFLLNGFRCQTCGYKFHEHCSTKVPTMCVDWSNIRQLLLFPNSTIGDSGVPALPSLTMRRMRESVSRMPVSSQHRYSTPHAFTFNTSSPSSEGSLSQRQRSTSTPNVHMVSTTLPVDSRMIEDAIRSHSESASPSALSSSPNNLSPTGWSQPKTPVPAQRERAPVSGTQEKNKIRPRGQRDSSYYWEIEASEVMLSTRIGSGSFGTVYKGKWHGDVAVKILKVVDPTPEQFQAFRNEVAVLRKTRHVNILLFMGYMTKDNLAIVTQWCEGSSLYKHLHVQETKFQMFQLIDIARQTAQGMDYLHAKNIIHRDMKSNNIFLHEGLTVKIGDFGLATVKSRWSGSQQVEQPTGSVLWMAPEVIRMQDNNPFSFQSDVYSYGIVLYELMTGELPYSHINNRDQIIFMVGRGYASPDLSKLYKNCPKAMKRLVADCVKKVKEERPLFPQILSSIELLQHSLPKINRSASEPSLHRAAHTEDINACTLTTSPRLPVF
Experimental: as §1, §2, §3, §4, §5, §6

[7] = molecular target: 97 kinases (kinase named in endpoint) (Homo sapiens, UniProt P04626); settings: read-out: % Ctrl, ERBB2
Experimental: as §1, §2, §3, §4, §5, §6

[8] = molecular target: 97 kinases (kinase named in endpoint) (Homo sapiens, UniProt P06213); settings: read-out: % Ctrl, INSR
Experimental: as §1, §2, §3, §4, §5, §6

[9] = molecular target: 97 kinases (kinase named in endpoint) (Homo sapiens, UniProt P07333); settings: read-out: % Ctrl, CSF1R
Chain of 97 kinases (kinase named in endpoint) (Homo sapiens, UniProt P07333) (P07333 20-972): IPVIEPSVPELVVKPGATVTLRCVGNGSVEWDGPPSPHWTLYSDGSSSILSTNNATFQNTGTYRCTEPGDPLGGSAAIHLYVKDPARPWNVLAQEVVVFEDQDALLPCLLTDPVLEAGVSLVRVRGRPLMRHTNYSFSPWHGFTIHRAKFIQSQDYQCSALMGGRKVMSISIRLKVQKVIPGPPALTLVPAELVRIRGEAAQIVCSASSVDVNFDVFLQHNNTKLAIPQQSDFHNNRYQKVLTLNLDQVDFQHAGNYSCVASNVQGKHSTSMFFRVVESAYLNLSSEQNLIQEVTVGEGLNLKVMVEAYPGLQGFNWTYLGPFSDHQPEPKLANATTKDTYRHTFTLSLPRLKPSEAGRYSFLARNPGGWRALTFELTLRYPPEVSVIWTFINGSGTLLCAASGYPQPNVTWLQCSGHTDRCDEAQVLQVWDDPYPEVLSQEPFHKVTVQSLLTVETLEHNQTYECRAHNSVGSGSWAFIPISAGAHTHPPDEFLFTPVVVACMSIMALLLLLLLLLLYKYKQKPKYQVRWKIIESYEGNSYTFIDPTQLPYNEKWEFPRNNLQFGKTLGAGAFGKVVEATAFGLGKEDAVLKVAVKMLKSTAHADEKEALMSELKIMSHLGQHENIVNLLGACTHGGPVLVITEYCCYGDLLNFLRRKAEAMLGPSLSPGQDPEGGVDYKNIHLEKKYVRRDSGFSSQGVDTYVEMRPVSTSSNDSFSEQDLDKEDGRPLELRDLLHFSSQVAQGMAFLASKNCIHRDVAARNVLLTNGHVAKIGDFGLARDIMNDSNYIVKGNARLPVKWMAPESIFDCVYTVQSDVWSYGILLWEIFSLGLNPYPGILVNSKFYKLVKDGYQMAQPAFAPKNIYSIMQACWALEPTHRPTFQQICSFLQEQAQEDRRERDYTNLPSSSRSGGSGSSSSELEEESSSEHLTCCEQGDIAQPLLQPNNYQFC
Experimental: as §1, §2, §3, §4, §5, §6

[10] = molecular target: 97 kinases (kinase named in endpoint) (Homo sapiens, UniProt P08069); settings: read-out: % Ctrl, IGF1R
Experimental: as §1, §2, §3, §4, §5, §6

[11] = molecular target: 97 kinases (kinase named in endpoint) (Homo sapiens, UniProt P08581); settings: read-out: % Ctrl, MET
Experimental: as §1, §2, §3, §4, §5, §6

[12] = molecular target: 97 kinases (kinase named in endpoint) (Homo sapiens, UniProt P10721, T670I/V559D); settings: read-out: % Ctrl, KIT(V559D,T670I)
Experimental: as §1, §2, §3, §4, §5, §6

[13] = molecular target: 97 kinases (kinase named in endpoint) (Homo sapiens, UniProt P11309); settings: read-out: % Ctrl, PIM1
Chain of 97 kinases (kinase named in endpoint) (Homo sapiens, UniProt P11309) (P11309 whole entry): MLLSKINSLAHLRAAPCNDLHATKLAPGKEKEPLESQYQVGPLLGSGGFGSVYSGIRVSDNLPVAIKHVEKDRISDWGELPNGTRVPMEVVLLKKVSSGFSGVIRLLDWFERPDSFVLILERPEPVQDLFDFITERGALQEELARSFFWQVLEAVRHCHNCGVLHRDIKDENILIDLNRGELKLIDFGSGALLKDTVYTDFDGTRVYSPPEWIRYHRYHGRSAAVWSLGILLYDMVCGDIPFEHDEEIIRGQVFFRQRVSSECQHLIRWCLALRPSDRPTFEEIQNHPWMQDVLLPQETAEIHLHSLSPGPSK
Experimental: as §1, §2, §3, §4, §5, §6

[14] = molecular target: 97 kinases (kinase named in endpoint) (Homo sapiens, UniProt P12931); settings: read-out: % Ctrl, SRC
Experimental: as §1, §2, §3, §4, §5, §6

[15] = molecular target: 97 kinases (kinase named in endpoint) (Homo sapiens, UniProt P15056); settings: read-out: % Ctrl, BRAF
Chain of 97 kinases (kinase named in endpoint) (Homo sapiens, UniProt P15056) (P15056 whole entry): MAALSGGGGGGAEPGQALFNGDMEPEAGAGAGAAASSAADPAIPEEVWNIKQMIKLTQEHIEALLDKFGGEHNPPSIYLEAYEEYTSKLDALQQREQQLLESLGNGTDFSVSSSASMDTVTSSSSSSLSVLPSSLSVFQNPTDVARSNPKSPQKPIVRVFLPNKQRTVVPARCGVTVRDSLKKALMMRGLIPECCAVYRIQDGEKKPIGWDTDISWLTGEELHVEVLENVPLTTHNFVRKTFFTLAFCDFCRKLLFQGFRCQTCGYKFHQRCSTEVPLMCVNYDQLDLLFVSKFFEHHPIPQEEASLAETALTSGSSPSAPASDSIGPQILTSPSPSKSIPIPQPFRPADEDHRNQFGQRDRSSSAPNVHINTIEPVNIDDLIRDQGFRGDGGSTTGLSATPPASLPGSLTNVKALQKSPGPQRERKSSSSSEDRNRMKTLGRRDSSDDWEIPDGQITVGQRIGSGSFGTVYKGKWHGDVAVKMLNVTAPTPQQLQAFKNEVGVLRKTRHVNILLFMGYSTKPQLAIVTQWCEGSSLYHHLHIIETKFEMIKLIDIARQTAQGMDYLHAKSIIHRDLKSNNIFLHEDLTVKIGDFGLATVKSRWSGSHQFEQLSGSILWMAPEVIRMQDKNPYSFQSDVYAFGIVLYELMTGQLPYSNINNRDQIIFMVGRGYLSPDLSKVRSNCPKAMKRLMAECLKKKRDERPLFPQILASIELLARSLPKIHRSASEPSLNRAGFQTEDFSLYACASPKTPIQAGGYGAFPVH
Experimental: as §1, §2, §3, §4, §5, §6

[16] = molecular target: 97 kinases (kinase named in endpoint) (Homo sapiens, UniProt P16234); settings: read-out: % Ctrl, PDGFRA
Experimental: as §1, §2, §3, §4, §5, §6

[17] = molecular target: 97 kinases (kinase named in endpoint) (Homo sapiens, UniProt P49841); settings: read-out: % Ctrl, GSK3B
Chain of 97 kinases (kinase named in endpoint) (Homo sapiens, UniProt P49841) (P49841 whole entry): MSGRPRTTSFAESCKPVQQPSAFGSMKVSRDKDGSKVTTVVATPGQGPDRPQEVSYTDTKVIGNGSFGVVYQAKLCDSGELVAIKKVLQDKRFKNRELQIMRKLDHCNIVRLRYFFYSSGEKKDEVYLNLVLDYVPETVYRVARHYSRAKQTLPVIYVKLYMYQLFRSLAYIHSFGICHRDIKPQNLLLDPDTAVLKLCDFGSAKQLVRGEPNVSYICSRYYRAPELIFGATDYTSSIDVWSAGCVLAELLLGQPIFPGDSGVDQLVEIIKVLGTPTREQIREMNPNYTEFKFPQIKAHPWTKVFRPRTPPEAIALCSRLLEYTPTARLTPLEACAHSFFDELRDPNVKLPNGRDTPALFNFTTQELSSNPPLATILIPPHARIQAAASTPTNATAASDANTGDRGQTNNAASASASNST
Experimental: as §1, §2, §3, §4, §5, §6

[18] = molecular target: 97 kinases (kinase named in endpoint) (Homo sapiens, UniProt P50613); settings: read-out: % Ctrl, CDK7
Experimental: as §1, §2, §3, §4, §5, §6

[19] = molecular target: 97 kinases (kinase named in endpoint) (Homo sapiens, UniProt P50750); settings: read-out: % Ctrl, CDK9
Experimental: as §1, §2, §3, §4, §5, §6

[20] = molecular target: 97 kinases (kinase named in endpoint) (Homo sapiens, UniProt P52333); settings: read-out: % Ctrl, JAK3(JH1domain-catalytic)
Experimental: as §1, §2, §3, §4, §5, §6

[21] = molecular target: 97 kinases (kinase named in endpoint) (Homo sapiens, UniProt Q00526); settings: read-out: % Ctrl, CDK3
Experimental: as §1, §2, §3, §4, §5, §6

[22] = molecular target: 97 kinases (kinase named in endpoint) (Homo sapiens, UniProt Q00536); settings: read-out: % Ctrl, PCTK1
Experimental: as §1, §2, §3, §4, §5, §6

[23] = molecular target: 97 kinases (kinase named in endpoint) (Homo sapiens, UniProt Q02156); settings: read-out: % Ctrl, PRKCE
Experimental: as §1, §2, §3, §4, §5, §6

[24] = molecular target: 97 kinases (kinase named in endpoint) (Homo sapiens, UniProt Q02750); settings: read-out: % Ctrl, MEK1
Experimental: as §1, §2, §3, §4, §5, §6

[25] = molecular target: 97 kinases (kinase named in endpoint) (Homo sapiens, UniProt Q05397); settings: read-out: % Ctrl, FAK
Chain of 97 kinases (kinase named in endpoint) (Homo sapiens, UniProt Q05397) (Q05397 whole entry): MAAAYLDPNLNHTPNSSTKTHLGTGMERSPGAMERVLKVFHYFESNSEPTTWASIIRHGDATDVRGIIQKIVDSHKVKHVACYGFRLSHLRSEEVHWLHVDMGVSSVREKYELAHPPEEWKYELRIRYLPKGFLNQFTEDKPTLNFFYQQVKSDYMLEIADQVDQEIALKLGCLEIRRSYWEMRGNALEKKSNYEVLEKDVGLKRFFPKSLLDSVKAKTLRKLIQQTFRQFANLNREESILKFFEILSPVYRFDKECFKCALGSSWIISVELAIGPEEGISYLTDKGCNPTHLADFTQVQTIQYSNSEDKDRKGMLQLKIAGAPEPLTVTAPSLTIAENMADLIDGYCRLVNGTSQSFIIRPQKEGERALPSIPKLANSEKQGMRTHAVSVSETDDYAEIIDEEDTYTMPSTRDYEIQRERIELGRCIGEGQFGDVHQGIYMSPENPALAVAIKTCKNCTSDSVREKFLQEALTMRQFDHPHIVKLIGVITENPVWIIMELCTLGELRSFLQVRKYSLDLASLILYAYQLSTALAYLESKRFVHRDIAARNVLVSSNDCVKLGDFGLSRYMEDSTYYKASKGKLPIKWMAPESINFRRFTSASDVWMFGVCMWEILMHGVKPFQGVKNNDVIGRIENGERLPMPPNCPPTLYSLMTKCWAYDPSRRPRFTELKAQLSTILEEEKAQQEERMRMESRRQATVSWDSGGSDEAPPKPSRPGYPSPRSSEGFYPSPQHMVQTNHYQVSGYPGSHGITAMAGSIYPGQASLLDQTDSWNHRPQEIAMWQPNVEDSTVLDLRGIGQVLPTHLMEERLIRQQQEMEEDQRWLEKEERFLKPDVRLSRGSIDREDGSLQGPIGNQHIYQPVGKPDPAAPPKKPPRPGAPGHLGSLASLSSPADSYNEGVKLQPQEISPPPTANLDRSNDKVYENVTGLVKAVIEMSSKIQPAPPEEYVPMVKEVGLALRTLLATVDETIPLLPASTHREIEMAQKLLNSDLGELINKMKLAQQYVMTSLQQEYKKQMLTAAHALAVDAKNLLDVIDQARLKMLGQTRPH
Experimental: as §1, §2, §3, §4, §5, §6

[26] = molecular target: 97 kinases (kinase named in endpoint) (Homo sapiens, UniProt Q96GD4); settings: read-out: % Ctrl, AURKB
Experimental: as §1, §2, §3, §4, §5, §6

[27] = molecular target: 97 kinases (kinase named in endpoint) (Homo sapiens, UniProt Q9BWU1); settings: read-out: % Ctrl, CDK11
Experimental: as §1, §2, §3, §4, §5, §6

[28] = molecular target: 97 kinases (kinase named in endpoint) (Homo sapiens, UniProt Q9Y6R4); settings: read-out: % Ctrl, MAP3K4
Experimental: as §1, §2, §3, §4, §5, §6

Chain of 97 kinases (kinase named in endpoint) (Homo sapiens, UniProt O14920) (O14920 whole entry): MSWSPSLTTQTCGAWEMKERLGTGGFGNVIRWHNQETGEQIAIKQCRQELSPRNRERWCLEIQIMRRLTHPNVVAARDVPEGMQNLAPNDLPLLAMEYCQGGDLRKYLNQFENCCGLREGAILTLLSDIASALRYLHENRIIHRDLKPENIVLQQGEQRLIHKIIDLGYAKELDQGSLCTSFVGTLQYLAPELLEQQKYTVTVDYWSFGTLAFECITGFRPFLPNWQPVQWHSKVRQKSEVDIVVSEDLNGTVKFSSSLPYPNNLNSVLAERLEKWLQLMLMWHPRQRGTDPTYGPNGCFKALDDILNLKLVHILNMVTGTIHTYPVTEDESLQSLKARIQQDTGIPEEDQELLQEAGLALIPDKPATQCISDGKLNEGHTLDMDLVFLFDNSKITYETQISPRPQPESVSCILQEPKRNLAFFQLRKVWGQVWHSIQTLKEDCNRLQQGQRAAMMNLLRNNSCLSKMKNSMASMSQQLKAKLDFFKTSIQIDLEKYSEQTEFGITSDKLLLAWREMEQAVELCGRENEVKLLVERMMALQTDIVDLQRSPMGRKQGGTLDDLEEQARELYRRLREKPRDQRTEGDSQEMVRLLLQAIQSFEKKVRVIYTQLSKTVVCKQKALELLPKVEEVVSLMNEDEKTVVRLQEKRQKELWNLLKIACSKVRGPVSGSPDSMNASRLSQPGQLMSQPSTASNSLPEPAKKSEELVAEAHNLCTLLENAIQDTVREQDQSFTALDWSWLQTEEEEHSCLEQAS

With `CCCCCCCCCCCCCC(=O)N[C@@H](CC(N)=O)C(=O)N[C@@H](CC(C)C)C(=O)N[C@]1(C)CCCCCCC=CCCC[C@@](C)(C(=O)N[C@@H](CCC(=O)O)C(=O)N[C@@H](CC(C)C)C(=O)N[C@@H](CC(N)=O)C(N)=O)NC(=O)[C@H](CC(C)C)NC(=O)[C@H](CC(C)C)NC(=O)[C@H](CCCNC(=N)N)NC(=O)[C@H](CC(=O)O)NC(=O)[C@H](CC(C)C)NC(=O)[C@H](CCC(=O)O)NC1=O` [compound 2012] the remaining binding at 1 µM [1] was 100%, the remaining binding at 1 µM [2] was 86% and the remaining binding at 1 µM [3] was 87%. The remaining binding at 1 µM [4] was 100%, the remaining binding at 1 µM [5] was 70% and the remaining binding at 1 µM [6] was 81%. For the same molecule, the remaining binding at 1 µM [7] was 55%, the remaining binding at 1 µM [8] was 100% and the remaining binding at 1 µM [9] was 95%. For the same molecule, the remaining binding at 1 µM [10] was 100%, the remaining binding at 1 µM [11] was 100% and the remaining binding at 1 µM [12] was 93%. It also gave a remaining binding at 1 µM [13] of 100%, a remaining binding at 1 µM [14] of 99% and a remaining binding at 1 µM [15] of 100%. The remaining binding at 1 µM [16] was 100%, the remaining binding at 1 µM [17] was 100% and the remaining binding at 1 µM [18] was 69%. For the same molecule, the remaining binding at 1 µM [19] was 100%, the remaining binding at 1 µM [20] was 83% and the remaining binding at 1 µM [21] was 89%. It also gave a remaining binding at 1 µM [22] of 100%, a remaining binding at 1 µM [23] of 53% and a remaining binding at 1 µM [24] of 94%. The remaining binding at 1 µM [25] was 96%, the remaining binding at 1 µM [26] was 100% and the remaining binding at 1 µM [27] was 87%. The remaining binding at 1 µM [28] was 90%.
With `CNC(=O)c1ccc(Nc2ncc(C(F)(F)F)c(NCc3nccnc3N(C)S(C)(=O)=O)n2)cc1` [defactinib] the remaining binding at 1 µM [1] was 100%, the remaining binding at 1 µM [2] was 47% and the remaining binding at 1 µM [3] was 0.1%. It also gave a remaining binding at 1 µM [4] of 7.4%, a remaining binding at 1 µM [5] of 82% and a remaining binding at 1 µM [6] of 86%. The remaining binding at 1 µM [7] was 65%, the remaining binding at 1 µM [8] was 61% and the remaining binding at 1 µM [9] was 72%. For the same molecule, the remaining binding at 1 µM [10] was 71%, the remaining binding at 1 µM [11] was 15% and the remaining binding at 1 µM [12] was 37%. It also gave a remaining binding at 1 µM [13] of 73%, a remaining binding at 1 µM [14] of 36% and a remaining binding at 1 µM [15] of 100%. The remaining binding at 1 µM [16] was 82%, the remaining binding at 1 µM [17] was 75% and the remaining binding at 1 µM [18] was 22%. It also gave a remaining binding at 1 µM [19] of 90%, a remaining binding at 1 µM [20] of 0% and a remaining binding at 1 µM [21] of 62%. The remaining binding at 1 µM [22] was 48%, the remaining binding at 1 µM [23] was 42% and the remaining binding at 1 µM [24] was 83%. For the same molecule, the remaining binding at 1 µM [25] was 0.1%, the remaining binding at 1 µM [26] was 13% and the remaining binding at 1 µM [27] was 97%. It also gave a remaining binding at 1 µM [28] of 69%.
